Assay type in all cases: cell-based
Assay [1] deals with Wnt activity (Sp5-Luc reporter, TCF/LEF binding sites) in SW480 colon carcinoma cells. Briefly: Wnt activity screening assay: Sp5-Luc reporter gene assay in SW480 cells. The settings on record: Homo sapiens; for inhibition at 10 µM: SW480, read-out: percent inhibition at 10 μM; for EC50: Sp5-Luc reporter, SW480 cells, overnight incubation. The text has this:
The screening assay for Wnt activity is described as follows. Reporter cell lines can be generated by stably transducing cancer cell lines (e.g., colon cancer) or primary cells (e.g., IEC-6 intestinal cells) with a lentiviral construct that includes a Wnt-responsive promoter driving expression of the firefly luciferase gene.
SW480 colon carcinoma cells were transduced with a lentiviral vector expressing luciferase with a human Sp5 promoter consisting of a sequence of eight TCF/LEF binding sites. SW480 cells stably expressing the Sp5-Luc reporter gene and a hygromycin resistance gene were selected by treatment with 150 μg/mL of hygromycin for 7 days. These stably transduced SW480 cells were expanded in cell culture and used for all further screening activities. […] For Sp5-Luc reporter gene assays, the cells were plated at 4,000 cells/well in 384-well plates with medium containing 1% fetal bovine serum and incubated overnight at 37° C. and 5% CO2. Following incubation, 20 μl of BrightGlo luminescence reagent (Promega) was added to each well of the 384-well assay plates. The plates were placed on an orbital shaker for 2 min and then luminescence was quantified using the Envision (Perkin Elmer) plate reader. Readings were normalized to DMSO only treated cells, and normalized activities were utilized for EC50 calculations using the dose-response log (inhibitor) vs. response variable slope (four parameters) nonlinear regression feature available in GraphPad Prism 5.0 (or Dotmatics).
A general note: In a reporter assay the amount or activity of a reporter protein is the signal.

For the next assay, the system named is IL-6 in THP-1 cells. As to the kind of experiment: IL-6 inhibition in LPS-stimulated THP-1 human monocyte cells (HTRF). The settings on record: for EC50: IL-6 inhibition, LPS-stimulated THP-1 cells, HTRF, 10-point dose-response starting from 10 μM; for inhibition at 10 µM: THP-1, read-out: percentage in parentheses beside EC50 >10. As for the experimental part:
Compound Screening: THP-1 cells were cultured in basal media with 1% FBS for 24 hours before the start of the assay. […] THP-1 cells were plated at 5000 cells/well in the 384-well plates and incubated at 37° C. for 2 h. 500 ng/mL of LPS was added after 2 hours and cells were incubated for another 22 hours at 37° C. Plates were spun in a centrifuge for 1 minute at […] and a mixture of anti-IL6 XL665, and anti-IL6 Cryptate diluted in reconstitution buffer (Cisbio Inc.) was added to each well. Following incubation for 3 hrs at room temperature, Homogeneous Time-Resolved Fluorescence (HTRF) was measured using the Envision (Perkin Elmer) at 665 nm and […]. The ratio of fluorescence at 665 nm to 620 nm was used as a readout for IL6 quantification. All samples were processed in duplicate. Readings were normalized to DMSO treated cells and normalized activities were utilized for EC50 calculations using the dose-response log (inhibitor) vs. response variable slope (four parameters) nonlinear regression feature available in GraphPad Prism 5.0 (or Dotmatics).
On the technique in general: In TR-FRET formats the signal depends on donor and acceptor labels being close together.

A further assay relates to SW480 colon cancer cells. As to the kind of experiment: Cell viability assay (CellTiter-Blue) in SW480 colon cancer cells. The settings on record: Homo sapiens; for EC50: 96 h, SW480 cell viability, four days, CellTiter-Blue; for inhibition at 10 µM: SW480, read-out: percent inhibition at 10 μM. Here is the method:
Representative compounds were screened using the following assay procedure to assess the effect on cell viability as described below.
Approximately 2×10^3 SW480 colon cancer cells were seeded into each well and allowed to incubate in the presence or absence of compound for four days at 37° C./5% CO2. Eight replicates of DMSO-treated cells served as controls and cells treated with compound were performed in duplicate.
After incubation, 20 μL of CellTiter-Blue (Promega) was added to each well allowed to incubate for approximately 3 hours. This reagent was a buffered solution which contains resazurin, metabolically active cells were able to reduce rezarurin (blue) into resorufin (pink) which was highly fluorescent. This measured fluorescence was used as a readout for cell viability.

Assay [2] deals with LL29 cells (primary human fibroblasts derived from IPF patients), α-smooth muscle actin. Briefly: Inhibition of the fibrotic process: αSMA staining in TGF-β1 treated primary human fibroblasts from IPF patients (LL29 cells). To be noted: Fibroblast; for EC50: 96 h, LL29 cells, TGF-β1 20 ng/mL, 4 days, % αSMA positive cells; for inhibition at 10 µM: read-out: percent inhibition at 10 μM. As for the experimental part:
Representative compounds were screened using primary human fibroblasts (derived from IPF patients) treated with TGF-β1 to determine their ability to inhibit the fibrotic process.
LL29 cells are plated at 1,500 cells/well in 80 μL/well F12 medium supplemented with 1% Fetal Bovine Serum. […] Wells treated with TGF-β1 and containing DMSO were used as controls. […] Following incubation for 4 days, SYTOX green nucleic acid stain (Life Technologies [Thermo Fisher Scientific]) was added to the wells at a final concentration of 1 μM and incubated at room temperature for 30 min.

The source of these data is patent US10226448B2, “3-(1H-pyrrolo[3,2-C]pyridin-2-yl)-1H-pyrazolo[3,4-B]pyridines and therapeutic uses thereof” (Samumed, LLC, priority 2015, dated 2019).

Bounds are passed on as bounds.

As usually defined, the EC50 is the concentration giving half of the maximal effect. Lower therefore signals an effect from little substance. On to `CC(C)(C)C(=O)Nc1cncc(-c2cnc3[nH]nc(-c4cc5c(N6CCCCC6)nccc5[nH]4)c3c2)c1` [Compound 176, N-(5-(3-(4-(Piperidin-1-yl)-1H-pyrrolo[3,2-c]pyridin-2-yl)-1H-pyrazolo[3,4-b]pyridin-5-yl)pyridin-3-yl)pivalamide], for which the inhibition at 10 µM in assay [1] turned out to be 18.2%; with IL-6 in THP-1 cells, 25.9%; in the assay with SW480 colon cancer cells, 5.2%; in assay [2], 28.2%. In addition, the EC50 (in assay [1]; in the assay on IL-6 in THP-1 cells; with SW480 colon cancer cells; in assay [2]) was above 10 µM throughout.
In the case of `CN1CCN(c2nccc3[nH]c(-c4n[nH]c5ncc(-c6cncnc6)cc45)cc23)CC1` [Compound 251, 3-(4-(4-Methylpiperazin-1-yl)-1H-pyrrolo[3,2-c]pyridin-2-yl)-5-(pyrimidin-5-yl)-1H-pyrazolo[3,4-b]pyridine], the inhibition at 10 µM in assay [1] came to 17.8%; in the assay with IL-6 in THP-1 cells, 35.7%; in the assay on SW480 colon cancer cells, 8.3%; in assay [2], 24.7%. The EC50 (in assay [1]; in the assay on IL-6 in THP-1 cells; in the assay with SW480 colon cancer cells; in assay [2]) was above 10 µM in each case.
Turning to `CN(C)c1cncc(-c2cnc3[nH]nc(-c4cc5c(-c6cccnc6)nccc5[nH]4)c3c2)c1` [Compound 91, N,N-Dimethyl-5-(3-(4-(pyridin-3-yl)-1H-pyrrolo[3,2-c]pyridin-2-yl)-1H-pyrazolo[3,4-b]pyridin-5-yl)pyridin-3-amine], the inhibition at 10 µM is 41.6% in assay [1], 32.3% with IL-6 in THP-1 cells and 3% in the assay on SW480 colon cancer cells. Also, the EC50 was above 10 µM in assay [1], above 10 µM in the assay with IL-6 in THP-1 cells, above 10 µM with SW480 colon cancer cells and 6.98 µM in assay [2].
On to `Oc1cncc(-c2cnc3[nH]nc(-c4cc5c(-c6cccs6)nccc5[nH]4)c3c2)c1` [Compound 709, 5-(3-(4-(Thiophen-2-yl)-1H-pyrrolo[3,2-c]pyridin-2-yl)-1H-pyrazolo[3,4-b]pyridin-5-yl)pyridin-3-ol], for which the concentration giving a half-maximal response (EC50) was 0.768 µM in assay [1], above 10 µM in the assay on IL-6 in THP-1 cells, 2.48 µM in the assay with SW480 colon cancer cells and 0.289 µM in assay [2]. The inhibition at 10 µM in the assay on IL-6 in THP-1 cells was 48.9%.
As to `c1cc(-c2cnc3[nH]nc(-c4cc5c(N6CCCCC6)nccc5[nH]4)c3c2)ccn1` [Compound 186, 3-(4-(Piperidin-1-yl)-1H-pyrrolo[3,2-c]pyridin-2-yl)-5-(pyridin-4-yl)-1H-pyrazolo[3,4-b]pyridine], the inhibition at 10 µM in assay [1] amounted to 30.8%; in the assay on IL-6 in THP-1 cells, 25.4%; with SW480 colon cancer cells, 11.1%; in assay [2], 0%. In addition, the EC50 (in assay [1]; in the assay on IL-6 in THP-1 cells; in the assay with SW480 colon cancer cells; in assay [2]) was above 10 µM in each case.
As for `CN1CCN(c2nccc3[nH]c(-c4n[nH]c5ncc(-c6cncc(NC(=O)CC7CCNCC7)c6)cc45)cc23)CC1` [Compound 641, N-(5-(3-(4-(4-Methylpiperazin-1-yl)-1H-pyrrolo[3,2-c]pyridin-2-yl)-1H-pyrazolo[3,4-b]pyridin-5-yl)pyridin-3-yl)-2-(piperidin-4-yl)acetamide], the inhibition at 10 µM was 0% in assay [1], 7.6% in the assay on IL-6 in THP-1 cells, 6.5% with SW480 colon cancer cells and 0% in assay [2]. In addition, the EC50 (in assay [1]; in the assay with IL-6 in THP-1 cells; with SW480 colon cancer cells; in assay [2]) was above 10 µM throughout.
Take `Fc1cccc(-c2nccc3[nH]c(-c4n[nH]c5ncc(-c6ccccn6)cc45)cc23)c1` [Compound 28, 3-(4-(3-Fluorophenyl)-1H-pyrrolo[3,2-c]pyridin-2-yl)-5-(pyridin-2-yl)-1H-pyrazolo[3,4-b]pyridine]: the concentration giving a half-maximal response (EC50) in assay [1] was determined as 1.29 µM; in the assay on IL-6 in THP-1 cells, 3.46 µM; in the assay on SW480 colon cancer cells, 0.519 µM; in assay [2] it was 0.752 µM.
Take `Fc1cccc(-c2nccc3[nH]c(-c4n[nH]c5ncc(-c6ccncc6)cc45)cc23)c1` [Compound 18, 3-(4-(3-Fluorophenyl)-1H-pyrrolo[3,2-c]pyridin-2-yl)-5-(pyridin-4-yl)-1H-pyrazolo[3,4-b]pyridine]: the values for the inhibition at 10 µM (in assay [1]; in the assay on IL-6 in THP-1 cells) were 22.6% and 0%, respectively. Besides, the EC50 in assay [1] was above 10 µM; with IL-6 in THP-1 cells, above 10 µM; in the assay with SW480 colon cancer cells it was 0.738 µM; in assay [2] it was 0.542 µM.
For `CC(C)(C)CC(=O)Nc1cncc(-c2cnc3[nH]nc(-c4cc5c(-c6ccc(F)cc6)nccc5[nH]4)c3c2)c1` [Compound 44, N-(5-(3-(4-(4-Fluorophenyl)-1H-pyrrolo[3,2-c]pyridin-2-yl)-1H-pyrazolo[3,4-b]pyridin-5-yl)pyridin-3-yl)-3,3-dimethylbutanamide], the EC50 in assay [1] turned out to be 0.986 µM; in the assay with IL-6 in THP-1 cells, 2.04 µM; in the assay on SW480 colon cancer cells it was 0.7 µM; in assay [2] it was 0.315 µM.
The like results for `Fc1cccc(-c2nccc3[nH]c(-c4n[nH]c5ncc(-c6cncc(CN7CCCCC7)c6)cc45)cc23)c1` [Compound 15, 3-(4-(3-Fluorophenyl)-1H-pyrrolo[3,2-c]pyridin-2-yl)-5-(5-(piperidin-1-ylmethyl)pyridin-3-yl)-1H-pyrazolo[3,4-b]pyridine] were, in that order, 1.82 µM, 4.78 µM, 0.856 µM and 0.66 µM.
With `c1cc2[nH]c(-c3n[nH]c4ncc(-c5cncc(CN6CCCC6)c5)cc34)cc2c(-c2ccoc2)n1` [Compound 322, 3-(4-(Furan-3-yl)-1H-pyrrolo[3,2-c]pyridin-2-yl)-5-(5-(pyrrolidin-1-ylmethyl)pyridin-3-yl)-1H-pyrazolo[3,4-b]pyridine], the 50% effective concentration (EC50) in assay [1] was 4.05 µM; with IL-6 in THP-1 cells, above 10 µM; with SW480 colon cancer cells, 2.34 µM; in assay [2], 2.21 µM. In addition, the inhibition at 10 µM with IL-6 in THP-1 cells turned out to be 29.4%.
With `Fc1cccc(-c2nccc3[nH]c(-c4n[nH]c5ncc(C6CCNCC6)cc45)cc23)c1` [Compound 505, 3-(4-(3-Fluorophenyl)-1H-pyrrolo[3,2-c]pyridin-2-yl)-5-(piperidin-4-yl)-1H-pyrazolo[3,4-b]pyridine], the EC50 in assay [1] was determined as 3.85 µM; with IL-6 in THP-1 cells, 3.45 µM; with SW480 colon cancer cells, 4.47 µM; in assay [2], 5.55 µM.
As to `CN1CCN(c2nccc3[nH]c(-c4n[nH]c5ncc(-c6cncc(CN7CCC(F)(F)C7)c6)cc45)cc23)CC1` [Compound 250, 5-(5-((3,3-Difluoropyrrolidin-1-yl)methyl)pyridin-3-yl)-3-(4-(4-methylpiperazin-1-yl)-1H-pyrrolo[3,2-c]pyridin-2-yl)-1H-pyrazolo[3,4-b]pyridine], the EC50 in assay [1] turned out to be 3.65 µM; in the assay on IL-6 in THP-1 cells, 0.4 µM; in the assay with SW480 colon cancer cells it was 3.15 µM; in assay [2], 4.94 µM.
